# Patent US12679846B2, “Xanthone compound having excellent anticancer effect” (KOREA INSTITUTE OF OCEAN SCIENCE & TECHNOLOGY, priority 2021, dated 2026)
# What was measured:
# [1] = test system: HCT-15 (colon cancer); assay: Cytotoxicity test against cancer cell lines (SRB assay), HCT-15; type: cell-based; settings: Homo sapiens, HCT-15, 48 hours
# Protocol: (§1) Human cancer cell lines HCT-15 (colon cancer), NUGC-3 (stomach cancer), NCI-H23 ([…]), ACHN (kidney cancer), PC-3 (prostate cancer), and MDA-MB-231 (breast cancer) were purchased and used from American Type Culture Collection (Manassas, VA).
# (§2) Each of the cancer cell lines was cultured in RPMI 1640 supplemented with 10% fetal bovine serum (FBS) at 37° C. in a humidified atmosphere of 5% CO2. Growth inhibition was evaluated for human cancer cell lines using a sulforhodamine B (SRB) assay. The cells were dispensed in a 96-well plate at a density of 8000 cells/well, and the next day, the cells were treated with each of Examples 1 and 2 (0.1% DMSO as vehicle control), and a positive control group was treated with Adriamycin. The cells were cultured for 48 hours, and then each culture medium was fixed with 50% trichloroacetic acid ([…]) and stained using 0.4% sulforhodamine B in 1% acetic acid. An unbound dye was washed with 1% acetic acid, and the dye bound to a protein was extracted with 10 mM Tris base (pH 10.5) to determine the optical density. Absorbance at 540 nm was determined using a VersaMax microplate reader (Molecular Devices, LLC, Sunnyvale, CA, USA). GI50 values were calculated using GraphPad Prism 4.0 software (GraphPad Software, Inc., San Diego, CA, USA), and the results are described in Table 2 below.
# [2] = test system: NUGC-3 (stomach cancer); assay: Cytotoxicity test against cancer cell lines (SRB assay), NUGC-3; type: cell-based; settings: Homo sapiens, NUGC-3, 48 hours
# Protocol: as §1, §2
# [3] = test system: NCI-H23; assay: Cytotoxicity test against cancer cell lines (SRB assay), NCI-H23; type: cell-based; settings: Homo sapiens, NCI-H23, 48 hours
# Protocol: as §1, §2
# [4] = test system: ACHN (kidney cancer); assay: Cytotoxicity test against cancer cell lines (SRB assay), ACHN; type: cell-based; settings: Homo sapiens, 48 hours
# Protocol: as §1, §2
# [5] = test system: PC-3 (prostate cancer); assay: Cytotoxicity test against cancer cell lines (SRB assay), PC-3; type: cell-based; settings: Homo sapiens, PC-3, 48 hours
# Protocol: as §1, §2
# [6] = test system: MDA-MB-231 (breast cancer); assay: Cytotoxicity test against cancer cell lines (SRB assay), MDA-MB-231; type: cell-based; settings: Homo sapiens, MDA-MB-231, 48 hours
# Protocol: as §1, §2
# [7] = test system: various types of cancer cell lines; assay: Cytotoxicity test (SRB assay), summary over the six cancer cell lines; type: cell-based; settings: Homo sapiens; range over six cancer cell lines; read-out: GI50 values ranging (over the cell lines of Table 2)
# Protocol: as §1, §2
# [8] = test system: human-derived breast cancer cell line MDA-MB-231; assay: Anticancer effect in animal test on breast cancer cell line (MDA-MB-231) transplanted in nude mice; type: in vivo, BALB/C nude mouse; settings: for Inhibition rate (tumor size, vs Control group); tumor growth inhibition: day 23 (last day)
# Protocol: Cancer cells (human-derived breast cancer cell line MDA-MB-231) that had been frozen-stored in liquid nitrogen were thawed and then cultured. The cells were cultured in a CO2 incubator (NuAire, USA) at a temperature of 37° C. and a CO2 concentration of 5%.
# Lineage and Sex: Specific pathogen-free (SPF) BALB/C strain and female nude mouse (Orient Bio Co., Ltd.)
# Week-old: Age at time of obtainment—5 week-old/Age at time of cancer cell transplantation—6 week-old/Age at time of drug administration—7 week-old
# On the final day of cancer cell culture, all cancer cells were collected and counted, and the cell concentration was adjusted to 3×10^7 cells/ml using serum free media. 0.3 ml (9×10^6 cells/mouse) of the cell culture medium adjusted in this way per mouse was injected subcutaneously in the axillary area between the right scapular region and chest wall.
# Calculation of Tumor Size Changes
# After cancer cell transplantation, until the 23rd day since the average tumor size for each group reached about 14.2 mm^3, tumor sizes were measured a total 11 times in three directions using Vernier calipers for each individual, and then expressed in Equation of length×width×height/2.
# On the 23rd day after the start of drug administration, all subjects were killed using CO2 gas, and the tumors were separated, weighed on chemical balance, and photographed.
# Statistical analysis was performed using GraphPad Prism software from GraphPad Software. Changes in body weight and tumor volume according to a day were analyzed using a Bonferroni multiple comparison test after two-way ANOVA, and tumor weight on the final day was analyzed using a Dunnett's multiple comparison test after one-way ANOVA.
# [9] = General symptoms and autopsy findings in MDA-MB-231 cancer cell transplant nude mice; settings: 2 mg/kg repeatedly intraperitoneally
# Protocol: Preparation and Administration of Experimental Substances Samples were prepared for administration in Examples 1 and 2. Each of the two compounds prepared above was dissolved in dimethylacetamide (DMAC) to make 0.1 mg/ml of a stock, and then 10% tween80 and 20% HPβCD 80% were added stepwise to a 10% DMAC stock to be prepared at a final concentration of 0.01 mg/ml, and as a comparison group for comparison of anticancer effects, doxorubicin was dissolved in physiological saline to prepare an experimental substance at a concentration of 0.2 mg/ml. The prepared experimental substance was repeatedly administered intraperitoneally total 18 times by 0.2 ml per 20 g of the mouse, 5 times a week on a dosing schedule (days 0 to 4, 7 to 11, 14 to 19, 21 to 23).
# [10] = day 2, 0.1 mg/kg intraperitoneally
# [11] = day 4, 0.1 mg/kg intraperitoneally
# [12] = day 7, 0.1 mg/kg intraperitoneally
# [13] = day 9, 0.1 mg/kg intraperitoneally
# [14] = day 11, 0.1 mg/kg intraperitoneally
# [15] = day 14, 0.1 mg/kg intraperitoneally
# [16] = day 16, 0.1 mg/kg intraperitoneally
# [17] = day 18, 0.1 mg/kg intraperitoneally
# [18] = day 21, 0.1 mg/kg intraperitoneally
# [19] = day 23, 0.1 mg/kg intraperitoneally
# [20] = day 2, 2 mg/kg intraperitoneally
# [21] = day 4, 2 mg/kg intraperitoneally
# [22] = day 7, 2 mg/kg intraperitoneally
# [23] = day 9, 2 mg/kg intraperitoneally
# [24] = day 11, 2 mg/kg intraperitoneally
# [25] = day 14, 2 mg/kg intraperitoneally
# [26] = day 16, 2 mg/kg intraperitoneally
# [27] = day 18, 2 mg/kg intraperitoneally
# [28] = day 21, 2 mg/kg intraperitoneally
# [29] = day 23, 2 mg/kg intraperitoneally
smiles,measurement,setting,value
"COc1ccc2c(=O)c3c(O)c4c(c(O)c3oc2c1OC)CCc1c(OC2OC(C)C(OC)C(OC)C2OC)c2c(c(O)c1-4)C(=O)OC(C)C2 (stereo not shown) [Example 2, 8,15,16-trihydroxy-10,11-dimethoxy-3-methyl-5-((3,4,5-trimethoxy-6-methyltetrahydro-2H-pyran-2-yl)oxy)-3,4,6,7-tetrahydropyrano[4′,3′:6,7]naphtho[1,2-b]xanthene-1,14-dione]",GI50,[1],5 nM
same,GI50,[2],3 nM
same,GI50,[3],4 nM
same,GI50,[4],5 nM
same,GI50,[5],3 nM
same,GI50,[6],4 nM
same,GI50,[7],3 to 5 nM
same,Tumor size (Δt = Vt − Vo),"[8]; day 0, 0.1 mg/kg intraperitoneally",0 mm^3
same,"Inhibition rate (tumor size, vs Control group)",[8]; [10],53.2%
same,Tumor size (Δt = Vt − Vo),[8]; [10],5.8 mm^3
same,"Inhibition rate (tumor size, vs Control group)",[8]; [11],59.3%
same,Tumor size (Δt = Vt − Vo),[8]; [11],10.1 mm^3
same,"Inhibition rate (tumor size, vs Control group)",[8]; [12],51.6%
same,Tumor size (Δt = Vt − Vo),[8]; [12],23.6 mm^3
same,"Inhibition rate (tumor size, vs Control group)",[8]; [13],49.3%
same,Tumor size (Δt = Vt − Vo),[8]; [13],30.1 mm^3
same,"Inhibition rate (tumor size, vs Control group)",[8]; [14],43.3%
same,Tumor size (Δt = Vt − Vo),[8]; [14],53.1 mm^3
same,"Inhibition rate (tumor size, vs Control group)",[8]; [15],50.7%
same,Tumor size (Δt = Vt − Vo),[8]; [15],96.9 mm^3
same,"Inhibition rate (tumor size, vs Control group)",[8]; [16],57.9%
same,Tumor size (Δt = Vt − Vo),[8]; [16],155.5 mm^3
same,"Inhibition rate (tumor size, vs Control group)",[8]; [17],46.1%
same,Tumor size (Δt = Vt − Vo),[8]; [17],297 mm^3
same,"Inhibition rate (tumor size, vs Control group)",[8]; [18],54.6%
same,Tumor size (Δt = Vt − Vo),[8]; [18],447.7 mm^3
same,"Inhibition rate (tumor size, vs Control group); tumor growth inhibition",[8]; 0.1 mg/kg intraperitoneally,56.7%
same,"Inhibition rate (tumor weight, vs Control group); reduction in tumor weight",[8]; [19],52.8%
same,Tumor size (Δt = Vt − Vo),[8]; [19],593.3 mm^3
same,Tumor weight on final day,[8]; [19],1033.4 mg
COc1cccc2c1C(=O)c1c(O)c3c(c(O)c1C2=O)C[C@@](O)(C(=O)CO)C[C@@H]3O[C@H]1C[C@H](N)[C@H](O)[C@H](C)O1 [doxorubicin],GI50,[1],153 nM
same,GI50,[2],145 nM
same,GI50,[3],139 nM
same,GI50,[4],151 nM
same,GI50,[5],137 nM
same,GI50,[6],146 nM
same,Tumor size (Δt = Vt − Vo),"[8]; day 0, 2 mg/kg intraperitoneally",0 mm^3
same,"Inhibition rate (tumor size, vs Control group)",[8]; [20],65.3%
same,Tumor size (Δt = Vt − Vo),[8]; [20],4.3 mm^3
same,"Inhibition rate (tumor size, vs Control group)",[8]; [21],64%
same,Tumor size (Δt = Vt − Vo),[8]; [21],8.9 mm^3
same,"Inhibition rate (tumor size, vs Control group)",[8]; [22],67.8%
same,Tumor size (Δt = Vt − Vo),[8]; [22],15.7 mm^3
same,"Inhibition rate (tumor size, vs Control group)",[8]; [23],67.9%
same,Tumor size (Δt = Vt − Vo),[8]; [23],19.1 mm^3
same,"Inhibition rate (tumor size, vs Control group)",[8]; [24],70.4%
same,Tumor size (Δt = Vt − Vo),[8]; [24],27.7 mm^3
same,"Inhibition rate (tumor size, vs Control group)",[8]; [25],80.5%
same,Tumor size (Δt = Vt − Vo),[8]; [25],38.3 mm^3
same,"Inhibition rate (tumor size, vs Control group)",[8]; [26],83%
same,Tumor size (Δt = Vt − Vo),[8]; [26],62.7 mm^3
same,"Inhibition rate (tumor size, vs Control group)",[8]; [27],83.3%
same,Tumor size (Δt = Vt − Vo),[8]; [27],92 mm^3
same,"Inhibition rate (tumor size, vs Control group)",[8]; [28],77.5%
same,Tumor size (Δt = Vt − Vo),[8]; [28],222.1 mm^3
same,"Inhibition rate (tumor size, vs Control group); tumor growth inhibition","[8]; 2 mg/kg intraperitoneally, listed as Comparison group, 2 mg/kg",79%
same,"Inhibition rate (tumor size, vs Control group); tumor growth inhibition","[8]; 2 mg/kg intraperitoneally, listed as comparison group, 2 mg/kg",79.0%
same,"Inhibition rate (tumor weight, vs Control group); reduction in tumor weight",[8]; [29],75.9%
same,Tumor size (Δt = Vt − Vo),[8]; [29],287.9 mm^3
same,Tumor weight on final day,[8]; [29],527.9 mg
same,General symptoms during administration and organs upon necropsy on the final day,[9],no abnormal findings
